Values of other authors, collected in US9468651B1, “Method of removing moles” (priority 2009, dated 2016).

Details: property of the ingredient stated with a literature reference (Merck Index; Concise Encyclopedia of Chemical Technology)

In the case of [K+].[OH-] [Potassium hydroxide], the PH value is given as 13.5.
